Where a name gives a salt, the structure may show the parent alone.
Assays:
[1] = test system: senescence-accelerated model mouse SAMP8; assay: Step through passive avoidance test; format: in vivo
Description: As a mouse for an in vivo test of the cyclic peptide derivative, senescence-accelerated model mouse SAMP8 which is used as a cognitive disorder model animal of initial Alzheimer's disease accompanied with aging was selected, and as a control, SAMR1 mouse with normal aging was selected.
19-Week old male mice of SAMR1 and SAMP8 were purchased from Japan SLC, Inc., and divided into 5 groups, i.e., mouse group with normal aging (SAMR1), senescence-accelerated model mouse group (SAMP8), {P8+donepezil hydrochloride 1250 μg/kg/day} group as a positive control, and {P8+cyclic peptide derivative 2.5 μg/kg/day} group and {P8+cyclic peptide derivative 25 μg/kg/day} group as a test group. The animal was individually kept, i.e., one animal per cage, in a room with controlled environment {room temperature: 23±2° C., light and dark cycle: lighting time of 12 hours (time with light: 07:00 to 19:00), time without light: 12 hours}. The test was carried out in a time window of from 13:00 to 18:00 in an incubator with constant temperature and constant humidity (temperature 23±2° C., humidity 50±10%). After 10 days of an acclimation period, all mice were provided with standard meal (MEQ, Oriental Yeast Company) and body weight of the animal was recorded everyday during the entire test period. […]
(3) {P8+donepezil hydrochloride 1250 μg/kg/day} group: As a positive control, donepezil hydrochloride (Sanyo Chemical Laboratories CO., LTD.) was dissolved in MQ and prepared to have a concentration of 1250 μg/kg (bodyweight), and then orally administered to a SAMP8 for 5 weeks by using a gastric sonde. The concentration was accurately calculated based on the bodyweight which has been measured every day. […]
(4) {P8+cyclic peptide derivative 2.5 μg/kg/day} group: As a test group, the cyclic peptide derivative was dissolved in MQ and prepared to have a concentration of 2.5 μg/kg (bodyweight), and then orally administered to a SAMP8 for 5 weeks by using a gastric sonde. The concentration was accurately calculated based on the bodyweight which has been measured every day. […]

[2] = test system: senescence-accelerated model mouse SAMP8; assay: Coefficient of friction measurement test of body hair; format: in vivo
Description: Considering that the anti-aging effect for body hair and hair has been analyzed until now by using a senescence-accelerated model mouse (SAMP8) (Non Patent Literature 40), the inventors of the present invention also conducted an analysis regarding the anti-aging effect for body hair and hair for a senescence-accelerated model mouse administered with the cyclic peptide derivative by using a static and dynamic friction tester and a scanning probe microscope (SPM).
Coefficient of friction of animal hair and body hair is closely related to the state of cuticle as a scale-like tissue present on a surface of hair and body hair, and it is considered that the value of coefficient of friction (COF) increases as damages on cuticle of a hair and body hair increases (Non Patent Literature 40). It is also known that, when the damages on cuticle are high, moisture or nutrients of hair and body hair are lost from the damaged part of cuticle.
As for the apparatus, a handy rub tester TL701 (manufactured by Trinity-Lab Inc.), which is a static and dynamic friction tester, was used. […] Namely, the apparatus even allows measurement of friction on a surface of skin or materials which have a complex curved surface.
The contact member of a static and dynamic friction tester was closely pressed on body hair on forehead part of a mouse, and while applying a load of about 1 N, the member was moved, through an area between two ears, from the forehead to neck part of the mouse for about ten seconds, and the coefficient of friction (COF) was measured. The coefficient of friction (COF) was measured 5 to 10 times per mouse, and an average value thereof was calculated.

| Structure (SMILES) | latency in post-shock trial ([1]; SAMP8, oral 1250 μg/kg/day, compared to SAMP8 not administered with anything, p<0.05) | coefficient of friction (COF) of body hair ([2]; SAMP8, oral donepezil hydrochloride 1250 μg/kg/day) | contextual learning ability (latency in post-shock trial) ([1]; SAMP8, oral 2.5 μg/kg/day) | contextual learning ability (latency in post-shock trial) ([1]; SAMP8, oral 25 μg/kg/day) | coefficient of friction (COF) of body hair ([2]; SAMP8, oral 2.5 μg/kg/day) | coefficient of friction (COF) of body hair ([2]; SAMP8, oral 25 μg/kg/day) |
| --- | --- | --- | --- | --- | --- | --- |
| COc1cc2c(cc1OC)C(=O)C(CC1CCN(Cc3ccccc3)CC1)C2 (stereo not drawn) [donepezil hydrochloride, reference compound] | short latency in significant sense | the same level as that of the senescence-accelerated model mouse | – | – | – | – |
| CCC1(C)Oc2cc(ccc2O)C(O)C(NC)C(=O)NC(C(C)C)C(=O)NC1C(=O)NC(CCC(=O)O)C(=O)O (stereo not drawn) [cyclic peptide derivative] | – | – | recovered to the level of a mouse with normal aging | recovered to the level of a mouse with normal aging | lowered to the same level as those of a mouse with normal aging | lowered to the same level as those of a mouse with normal aging |
